Measurements as given in EP2389922A1, “Cyclohexyl carbamate compounds as anti-ageing actives” (Symrise AG, priority 2010, dated 2011).

How the values were obtained:
SIRT1 = SIRT1 assay: stimulation of SIRT1 expression in NHDF cells (immunofluorescence); format: cell-based, human; details: concentration 30 µM; NHDF cells treated 48 h; mean values of at least 2 independent tests
Procedure: NHDF cells (normal human dermal fibroblasts) were seeded in 96-well plates. After 24 h cultivation at 37 °C and 5% CO2 in DMEM (Dulbecco's Modified Eagle Medium), cells were treated with test substances for another 48 h. After washing the cells with PBS (phosphate buffered saline), the cells were fixed with paraformaldehyde and permeabilized. Then they were washed again and blocked with BSA (bovine serum albumen), followed by incubation with […]. After extensive washing, the fluorescence is measured in a microplate reader and fluorescence images were recorded on a fluorescence microscope with an attached […]. The stimulation of SIRT1 expression was calculated by: StimulationofSIRT1expression[%] = ((RFUtestesubstance−RFUbackground)/(RFUcontrol−RFUbackground)×100)−100 [formula] RFU test substance = relative fluorescent units of the wells with test substance, stained completely RFU control = relative fluorescent units of the wells without test substance, stained completely RFU background = relative fluorescent units of the wells without test substance, stained only with secondary antibody. Table Example 2: Stimulation of SIRT1 expression by the individual substances (mean values of at least 2 independent tests)

proteasome = molecular target: T1, proteasome (Homo sapiens, UniProt P28074); assay: Measurement of proteasome activity using cell lysates (HaCaT cells, MCA liberation); format: biochemical; details: HaCaT cell lysate, relative to DMSO control (0 mM = 100 %), mean values of 3 independent tests
T1 construct: endogenous in cells; host or cells: HaCaT human keratinocytes (cell lysate)
Procedure: To determine proteasome activity in cell lysate, human keratinocyte cell lines (HaCaT cells) were seeded out in Petri-dishes (area: 22.1 cm^2) and harvested when they reached confluence. Isolation of the pure cell lysate included cell washing, incubation and homogenization in lysis buffer (250mM sucrose, 25mM HEPES (4-(2-hydroxyethyl)-1-piperazineethanesulfonic acid), 10mM MgCl2*6H2O, 1.3mM EDTA) and final cell lysis with liquid nitrogen. Determination of proteasome activity is based on the liberation of MCA and the corresponding fluorescence like described above in example 3.1. Proteasome activity was calculated relative to DMSO control (0 mM). Table Example 3.2: Measurement of proteasome activity of BIO1272 using cellular extracts (mean values of 3 independent tests)

isolated 20S proteasome = isolated 20S proteasome (Homo sapiens, UniProt P28074); assay: Measurement of proteasome activity using isolated proteasome (chymotrypsin-like activity, MCA liberation); format: biochemical; details: mean values of 3 independent tests
From the text: The method used herein to investigate the proteasome stimulating activity of a substance is based on the measurement of the 20S proteasome core activity. To detect this activity, the isolated 20S proteasome reacts with an oligopeptide, which is bound to a fluorochrome. With its chymotrypsin-like proteolytic activity, the proteasome degrades the oligopeptide and liberates the fluorochrome. For this assay 4-methyl-coumaryl-amide (MCA) was used as fluorochrome. Liberation of MCA correlates linearly with the proteasome activity. MCA wass detected using an excitation of 360 nm and an emission of 460 nm.
For interpretation, the measured proteasome activities / intensities of fluorescence were compared with pure MCA standards at distinct concentrations.
Two different controls were used for each assay. One "ordinary" control (C) which consisted of isolated proteasome alone, and a DMSO-control (DC). DC was necessary because all substances were diluted in DMSO. Proteasome activity was calculated relative to DMSO control (0 mM). Table Example 3.1: Measurement of proteasome activity of BIO1272 using isolated proteasome (mean values of 3 independent tests)

fish = details: cited from earlier work
yeast = details: cited from earlier work

Compound | Stimulation of SIRT1 expression (SIRT1) [%] | further results
CCCCNC(=O)O[C@H]1C[C@@H](C)CC[C@@H]1C(C)C [BIO1860, Butyl-carbamic acid (1S,2R,5S)-2-isopropyl-5-methyl-cyclohexyl ester] | 47 | –
CCCCNC(=O)OC1C(C)CCC(C)C1C (stereo not shown) [BIO1617, n-Butyl-carbamic acid 2,3,6-trimethyl-cyclohexyl ester] | 24 | –
CC(C)NC(=O)O[C@@H]1C[C@H](C)CC[C@H]1C(C)C [BIO1272, Isopropyl-carbamic acid (1R,2S,5R)-2-isopropyl-5-methyl-cyclohexyl ester] | – | Relative proteasome activity [%] (proteasome; 5mM BIO1272): 105%; Relative proteasome activity [%] (proteasome; 10mM BIO1272): 120%; Relative proteasome activity [%] (proteasome; 20mM BIO1272): 140%; Relative proteasome activity [%] (isolated 20S proteasome; 5mM BIO1272, relative to DMSO control (0 mM = 100 %)): 125%; Relative proteasome activity [%] (isolated 20S proteasome; 10mM BIO1272, relative to DMSO control (0 mM = 100 %)): 210%; Relative proteasome activity [%] (isolated 20S proteasome; 20mM BIO1272, relative to DMSO control (0 mM = 100 %)): 250%
CCCCNC(=O)O[C@@H]1C[C@H](C)CC[C@H]1C(C)C [BIO1267, n-Butyl-carbamic acid (1R,2S,5R)-2-isopropyl-5-methyl-cyclohexyl ester] | 29 | –
CC(C)[C@@H]1CC[C@@H](C)C[C@H]1OC(=O)Nc1ccccc1 [BIO1580, Phenyl-carbamic acid (1R,2S,5R)-2-isopropyl-5-methyl-cyclohexyl ester] | 117 | –
CCC(C)NC(=O)OC1CCCC(C)C1C (stereo not shown) [BIO1845, sec-Butyl-carbamic acid 2,3-dimethyl-cyclohexyl ester] | 52 | –
CCCCCCNC(=O)O[C@@H]1C[C@H](C)CC[C@H]1C(C)C [BIO1271, Hexyl-carbamic acid (1R,2S,5R)-2-isopropyl-5-methyl-cyclohexyl ester] | 66 | –
CCCCNC(=O)OC1CCCCC1C(C)C (stereo not shown) [BIO1841, n-Butyl-carbamic acid 2-isopropyl-cyclohexyl ester] | 14 | –
Oc1ccc(C=Cc2cc(O)cc(O)c2)cc1 [Resveratrol] | – | extending lifespan (fish): 60%; extending lifespan (yeast): 70%
CCc1ccc(NC(=O)OC2CC(C)CC(C)C2)cc1 (stereo not shown) [BIO1823, (4-Ethyl-phenyl)-carbamic acid 3,5-dimethyl-cyclohexyl ester] | 66 | –
